Source: ChEMBL document CHEMBL1131458, “Design and synthesis of malonic acid-based inhibitors of human neutrophil collagenase (MMP8)” (J Med Chem, 1998)

Biological target: Neutrophil collagenase (Homo sapiens, UniProt P22894)
Assay: Inhibition of Matrix metalloprotease-8 (Human neutrophil collagenase, MMP-8)

Sequence of Neutrophil collagenase (P22894 whole entry): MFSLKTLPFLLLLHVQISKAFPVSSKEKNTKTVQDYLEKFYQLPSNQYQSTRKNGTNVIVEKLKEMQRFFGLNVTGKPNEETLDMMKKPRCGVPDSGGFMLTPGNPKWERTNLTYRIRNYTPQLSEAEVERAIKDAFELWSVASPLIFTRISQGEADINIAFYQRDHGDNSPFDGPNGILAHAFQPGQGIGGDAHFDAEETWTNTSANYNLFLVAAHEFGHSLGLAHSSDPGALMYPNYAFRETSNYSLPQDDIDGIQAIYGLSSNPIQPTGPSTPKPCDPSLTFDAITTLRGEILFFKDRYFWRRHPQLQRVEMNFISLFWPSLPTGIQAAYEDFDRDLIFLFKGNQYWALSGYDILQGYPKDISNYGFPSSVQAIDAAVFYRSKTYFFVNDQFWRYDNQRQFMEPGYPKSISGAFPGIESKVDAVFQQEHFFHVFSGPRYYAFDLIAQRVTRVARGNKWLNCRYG

Ki [µM]	SMILES
168	CC(C)CC(C(=O)NO)C(=O)N1CCCC1C(=O)NCc1ccccc1 (stereo not given)
1.6	Cc1ccc(CCNC(=O)[C@H](CCc2ccccc2)NC(=O)C(O)C(=O)NO)cc1 (stereo not given in full)
50	CC(C)CC(C(=O)NO)C(=O)NC(C)C(=O)NCc1ccccc1 (stereo not given)
12	CC(C)CC(C(=O)NO)C(=O)N[C@@H](CCc1ccccc1)C(=O)NCCc1ccc(O)cc1 (stereo not given in full)
88	CC(C)CC(C(=O)NO)C(=O)NC(CC(=O)O)C(=O)NCc1ccccc1 (stereo in doubt; 12b)
121	CC(C)C[C@H](C(=O)NO)C(=O)N[C@@H](C)C(=O)NCC(N)=O
194	CC(C)CC(C(=O)NO)C(=O)N[C@H](C)C(=O)NCc1ccccc1 (stereo not given in full)
1.7	Cc1ccc(CCNC(=O)[C@H](CCc2ccccc2)NC(=O)C(Cc2ccccc2)C(=O)NO)cc1 (stereo not given in full)
136	CC(C)CC(C(=O)NO)C(=O)NC(CC(=O)O)C(=O)NCc1ccccc1 (stereo in doubt; 12)
4	Cc1ccc(CCNC(=O)[C@H](CCc2ccccc2)NC(=O)C(CCc2ccccc2)C(=O)NO)cc1 (stereo not given in full)
1.4	Cc1ccc(CCNC(=O)[C@H](CCc2ccccc2)NC(=O)C(CC(C)C)C(=O)NO)cc1 (stereo not given in full)
25	CC(C)CC(C(=O)NO)C(=O)NC(Cc1ccccc1)C(=O)NCc1ccccc1 (stereo not given)
35	CC(C)CC(C(=O)NO)C(=O)NC(CO)C(=O)NCc1ccccc1 (stereo not given)
26	CC(C)CC(C(=O)NO)C(=O)NC(CC(N)=O)C(=O)NCc1cccc(N)c1 (stereo not given)
190	CCOC(=O)C(CC(C)C)C(=O)NO (stereo not given)
20	CC(C)CC(C(=O)NO)C(=O)N[C@@H](CCc1ccccc1)C(=O)NCCc1ccc(C(=O)O)cc1 (stereo not given in full)
36	CC(C)CC(C(=O)NO)C(=O)Nc1ccccc1C(=O)NCc1ccccc1 (stereo not given)
55	CC(C)CC(C(=O)NO)C(=O)NC(CC(N)=O)C(=O)NCc1ccccc1 (stereo not given)
9.6	COC(=O)c1ccc(CCNC(=O)[C@H](CCc2ccccc2)NC(=O)C(CC(C)C)C(=O)NO)cc1 (stereo not given in full)

SMILES	Ki [µM]
CCOC(=O)C(C(=O)NO)c1ccccc1 (stereo not given)	98
CCOC(=O)C(CCc1ccccc1)C(=O)NO (stereo not given)	189
O=C(NO)C(CCc1ccccc1)C(=O)NCc1ccccc1 (stereo not given)	2.3
O=C(NO)C(O)C(=O)NCCCc1ccccc1 (stereo not given)	2.3
O=C(NO)C(Cc1ccccc1)C(=O)NCCCc1ccccc1 (stereo not given)	0.56
O=C(NO)C(CCc1ccccc1)C(=O)NCCCc1ccccc1 (stereo not given)	0.49
O=C(NO)C(Cc1ccccc1)C(=O)N1CCOCC1 (stereo not given)	50
O=C(NO)C(Cc1ccccc1)C(=O)NCc1ccccc1 (stereo not given)	3.1
CCOC(=O)C(Cc1ccccc1)C(=O)NO (stereo not given)	53
CCCCCCCCNC(=O)C(CC(C)C)C(=O)NO (stereo not given)	0.24
CC(C)CC(C(=O)NO)C(=O)NCCCc1ccccc1 (stereo not given)	0.54
